Entries after “also recorded” stand apart in the source; their conditions may differ. Read-outs that look alike come from different tables or passages of the source.
Assays:
[1] = biological target: Recombinant ROCK1 (amino acids 1-535) (Homo sapiens (Human), UniProt Q13464); assay: Z′-Lyte kinase assay, ROCK1; format: biochemical; settings: for inhibition at 0.5 µM: 0.5 μM compound
In short: (§1)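 Recombinant human ROCK1 (aa 1-535) or ROCK2 (aa 1-552) activity read by Z′-Lyte kinase assay. Percent inhibition at 1 μM compound was normalized to DMSO control; IC50 from 9-point 2-fold serial dilutions by nonlinear regression.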

[2] = biological target: Recombinant ROCK2 (amino acids 1-552) (Homo sapiens (Human), UniProt O75116); assay: Z′-Lyte kinase assay, ROCK2; format: biochemical; settings: for inhibition at 0.5 µM: 0.5 μM compound
In short: as §1

[3] = system: ppMlc (T18/S19) levels in A7R5 cells; assay: A7R5 in-cell ELISA (pMLC); format: cell-based, Rat; settings: Rattus norvegicus, A7R5, A7R5 cells; for inhibition at 10 µM: 10 μM compound
In short: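 A7R5 rat aortic smooth muscle cells seeded 24 h, then treated 90 min with a 9-point 2-fold compound dilution series. Fixed cells probed for ppMlc (T18/S19) by colorimetric in-cell ELISA; cellular IC50 from nonlinear regression curve fit.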

[4] = system: human ACTA2 gene promoter luciferase reporter in NIH3T3 cells; assay: NIH3T3 Acta2-promoter driven-luciferase assay; format: cell-based; settings: NIH3T3, 24 h, read-out: NIH3T3 Acta2-luc, IC50
In short: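 NIH3T3 cells stably carrying a human ACTA2 promoter (−1000-1 bp)-luciferase reporter, grown to confluence, treated 24 hr with compound plus TGFβ1 at 9-point serial dilution. Luciferase read after lysis; IC50 by nonlinear regression.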

[5] = system: CCD18lu human lung fibroblasts; assay: F-actin stress fiber formation (phalloidin staining); format: cell-based
ppMLC in SVEC4-10 cells = assay: Thrombin induced MLC phosphorylation western blot; format: cell-based, Mouse; settings: SVEC4-10 endothelial cells, increasing doses of thrombin, 10 min
Experimental: FIG. 7b. […] Mouse endothelial cell line SVEC4-10 cells were cultured and treated with increasing doses of thrombin in combination with ROCKi for 10 min. ppMLC signal was detected by western blot. […] Mouse endothelial cell line SVEC4-10 was cultured and treated with increasing doses of thrombin in combination with ROCK inhibitor for 10 min. ppMLC signal was detected by western blot. […] Collectively, the above data strongly supports the ROCK inhibitors of the invention as an effective intervention in fibrotic diseases.

Detroit 562 cells = assay: Integrin αvβ6 mediated latent TGFβ activation (phospho-Smad2/3); format: cell-based; settings: with thrombin, 2 hours
Experimental: FIG. 5. ROCK inhibitor (Example 228) blocked integrin αvβ6 mediated latent TGFβ activation. Integrin αvβ6 positive cell line Detroit 562 cells were plated and treated with compounds in combination with parl ligand thrombin for 2 hours, lysed and activation of TGFβ signaling was detected by phosphorylation of transcription factors Smad2/3. Integrin αvβ6 mediated latent TGFβ activation requires ROCK activity (Jenkins et al., 2006). Activation of the latent TGF3 complex is a key step in regulating the biological availability of this molecule and its subsequent activities. Under tissue injury, extracellular protease cleavage of cell membrane receptor protease-activated receptor 1 (parl) leads to activation of Rho/ROCK, which in turn activates latent ECM associated TGFβ through cell membrane integrin αvβ6. […] Integrin αvβ6 positive cell line Detroit 562 cells were plated and treated with compounds in combination with parl ligand thrombin for 2 hours, lysed and activation of TGFβ signaling was detected by phosphorylation of transcription factors Smad2/3.

[6] = system: MKL1 in CCD18Lu human lung fibroblasts; assay: MKL1 nuclear translocation, immunofluorescent staining; format: cell-based; settings: 3 μM, 3 hours
Experimental: FIG. 3. Immunofluorescent staining of MKL1 in human lung fibroblasts. CCD18Lu human lung fibroblasts were treated with compounds for 3 hours and fixed and stained for MKL1, F-actin and DAPI. […] The Example 228 compound abolished nuclear accumulation of MKL1 in cultured human lung fibroblasts. CCD18Lu human lung fibroblasts were treated with the ROCK inhibitor (3 μM) for 3 hours and fixed and stained for MKL1, F-actin and DAPI.

[7] = 9 points 2-fold serial dilution
[8] = NIH3T3 cells, plus TGFβ1 for 24 hr
[9] = read-out: pMLC % inh A7R5 @ [conc]
[10] = read-out: ROCK1 % inh. @ [conc]
[11] = read-out: ROCK2 % inh. @ [conc]

Recombinant ROCK2 (amino acids 1-552), sequence (O75116 1-552): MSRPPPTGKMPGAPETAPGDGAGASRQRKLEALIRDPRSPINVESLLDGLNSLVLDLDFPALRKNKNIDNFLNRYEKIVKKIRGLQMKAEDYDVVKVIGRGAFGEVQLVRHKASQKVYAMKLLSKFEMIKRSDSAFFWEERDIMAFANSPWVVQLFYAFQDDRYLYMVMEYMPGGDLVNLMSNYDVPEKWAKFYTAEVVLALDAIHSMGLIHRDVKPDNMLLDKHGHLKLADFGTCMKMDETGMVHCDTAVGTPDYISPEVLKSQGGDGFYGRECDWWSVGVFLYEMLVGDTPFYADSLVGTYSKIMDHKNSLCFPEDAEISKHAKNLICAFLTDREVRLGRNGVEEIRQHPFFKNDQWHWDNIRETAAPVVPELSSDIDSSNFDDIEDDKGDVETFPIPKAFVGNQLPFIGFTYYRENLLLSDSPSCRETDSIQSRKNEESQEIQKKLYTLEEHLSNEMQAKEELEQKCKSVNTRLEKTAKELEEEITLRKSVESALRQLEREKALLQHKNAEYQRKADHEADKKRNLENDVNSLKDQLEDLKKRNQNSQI
Recombinant ROCK1 (amino acids 1-535), sequence (Q13464 1-535): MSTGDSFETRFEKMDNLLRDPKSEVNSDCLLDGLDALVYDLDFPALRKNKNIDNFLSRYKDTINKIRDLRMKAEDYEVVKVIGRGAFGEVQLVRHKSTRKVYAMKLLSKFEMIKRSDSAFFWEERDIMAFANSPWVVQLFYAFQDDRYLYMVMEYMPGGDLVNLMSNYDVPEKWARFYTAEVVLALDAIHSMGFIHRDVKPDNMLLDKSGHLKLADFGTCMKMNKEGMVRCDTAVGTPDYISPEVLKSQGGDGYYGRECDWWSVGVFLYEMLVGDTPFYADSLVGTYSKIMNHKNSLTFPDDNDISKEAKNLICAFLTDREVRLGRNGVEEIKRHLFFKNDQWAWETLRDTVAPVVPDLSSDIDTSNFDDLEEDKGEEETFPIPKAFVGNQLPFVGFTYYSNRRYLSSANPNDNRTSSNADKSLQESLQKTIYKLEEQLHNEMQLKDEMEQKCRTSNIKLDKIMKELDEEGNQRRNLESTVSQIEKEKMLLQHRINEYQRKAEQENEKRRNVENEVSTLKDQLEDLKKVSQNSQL

Fc1cnc(N2C3CNCC2C3)nc1Nc1ccc2[nH]ncc2c1 [Example 220, N-(2-(3,6-diazabicyclo[3.1.1]heptan-6-yl)-5-fluoropyrimidin-4-yl)-1H-indazol-5-amine]
IC50 [1, 7]: 3.1 nM
IC50 [2, 7]: 5.9 nM
inhibition at 1 µM ([3]; 1 μM compound, read-out: pMLC % inh A7R5 @ [conc]): 45.1%
IC50 ([3]; ppMlc (T18/S19)): 74 nM
IC50 [4, 8]: 167 nM

c1cc(Nc2ccc3[nH]ncc3c2)nc(N2C3CCC2CNC3)n1 [Example 228, N-(2-(3,8-diazabicyclo[3.2.1]octan-8-yl)pyrimidin-4-yl)-1H-indazol-5-amine]
F-actin stress fiber formation [5]: phenotypically copied gene silencing; also recorded: inhibited
thrombin induced phosphorylation of MLC (ppMLC in SVEC4-10 cells): potently inhibited
inhibition at 3 µM ([1]; 3 μM compound, read-out: ROCK1 % inh. @ [conc]): 98.5%
IC50 [1, 7]: 4 nM
inhibition at 3 µM ([2]; 3 μM compound, read-out: ROCK2 % inh. @ [conc]): 101%
IC50 [2, 7]: 3 nM
integrin αvβ6 mediated latent TGFβ activation (phosphorylation of Smad2/3) (Detroit 562 cells): blocked
inhibition at 10 µM [3, 9]: 83%
IC50 ([3]; ppMlc (T18/S19)): 69 nM
IC50 [4, 8]: 151 nM
nuclear accumulation of MKL1 [6]: abolished
stress fiber formation ([6]; F-actin staining): efficiently cleared

CC1CNCCN(c2nccc(Nc3ccc4[nH]ncc4c3)n2)C1 (stereo not shown) [Example 237, N-(2-(6-methyl-1,4-diazepan-1-yl)pyrimidin-4-yl)-1H-indazol-5-amine]
IC50 [1, 7]: 63 nM
IC50 [2, 7]: 104 nM
inhibition at 10 µM [3, 9]: 68.2%
IC50 ([3]; ppMlc (T18/S19)): 423 nM
IC50 [4, 8]: 2350 nM

Cc1nc(N2C3CCC2CNC3)nc(Nc2ccc3[nH]ncc3c2)c1F [Example 302, N-(2-(3,8-diazabicyclo[3.2.1]octan-8-yl)-5-fluoro-6-methylpyrimidin-4-yl)-1H-indazol-5-amine]
inhibition at 0.5 µM [1, 10]: 99%
IC50 [2]: 2.2 nM
inhibition at 0.5 µM [2, 11]: 98%
IC50 [3]: 35 nM
IC50 ([4]; with TGFβ1, 24 hr): 229 nM

CC(=O)N1Cc2nc(N3C4CCC3CNC4)nc(Nc3ccc4[nH]ncc4c3)c2C1 [Example 314, 1-(4-((1H-indazol-5-yl)amino)-2-(3,8-diazabicyclo[3.2.1]octan-8-yl)-5,7-dihydro-6H-pyrrolo[3,4-d]pyrimidin-6-yl)ethan-1-one]
inhibition at 0.5 µM [1, 10]: 81%
IC50 [2]: 80 nM
inhibition at 0.5 µM [2, 11]: 94%
IC50 [3]: > 5000 nM
IC50 ([4]; with TGFβ1, 24 hr): > 5000 nM

c1cc(-c2cn[nH]c2)ccc1Nc1nc(N2C3CNCC2C3)nc2c1COC2 [Example 316, N-(4-(1H-pyrazol-4-yl)phenyl)-2-(3,6-diazabicyclo[3.1.1]heptan-6-yl)-5,7-dihydrofuro[3,4-d]pyrimidin-4-amine]
inhibition at 0.5 µM [1, 10]: 90%
IC50 [2]: 27 nM
inhibition at 0.5 µM [2, 11]: 85%
IC50 [3]: 2420 nM
IC50 ([4]; with TGFβ1, 24 hr): > 10000 nM

c1cc(-c2cn[nH]c2)ccc1Nc1nc(N2C3CNCC2C3)nc2c1COCC2 [Example 317, N-(4-(1H-pyrazol-4-yl)phenyl)-2-(3,6-diazabicyclo[3.1.1]heptan-6-yl)-7,8-dihydro-5H-pyrano[4,3-d]pyrimidin-4-amine]
inhibition at 0.5 µM [1, 10]: 70%
IC50 [2]: 38 nM
inhibition at 0.5 µM [2, 11]: 75%
IC50 [3]: > 10000 nM
IC50 ([4]; with TGFβ1, 24 hr): > 10000 nM

Oc1nc(N2C3CCC2CNC3)nc(Nc2ccc3[nH]ncc3c2)c1F [Example 320, 6-((1H-indazol-5-yl)amino)-2-(3,8-diazabicyclo[3.2.1]octan-8-yl)-5-fluoropyrimidin-4-ol]
IC50 [1]: 8.7 nM
inhibition at 0.5 µM [1, 10]: 95%
IC50 [2]: 18 nM
inhibition at 0.5 µM [2, 11]: 97%
IC50 [3]: > 5000 nM
IC50 ([4]; with TGFβ1, 24 hr): > 5000 nM

COc1nc(N2C3CCC2CNC3)nc(Nc2ccc3[nH]ncc3c2)c1Cl [Example 321, N-(2-(3,8-diazabicyclo[3.2.1]octan-8-yl)-5-chloro-6-methoxypyrimidin-4-yl)-1H-indazol-5-amine]
inhibition at 0.5 µM [1, 10]: 98%
IC50 [2]: 8 nM
inhibition at 0.5 µM [2, 11]: 100%
IC50 [3]: 74 nM
IC50 ([4]; with TGFβ1, 24 hr): 114 nM

CN(C)c1cc(Nc2ccc3[nH]ncc3c2)nc(N2C3CCC2CNC3)n1 [Example 336, 2-(3,8-diazabicyclo[3.2.1]octan-8-yl)-N^4-(1H-indazol-5-yl)-N^6,N^6-dimethylpyrimidine-4,6-diamine]
inhibition at 0.5 µM [1, 10]: 99%
IC50 [2]: 3.6 nM
inhibition at 0.5 µM [2, 11]: 103%
IC50 [3]: 25 nM
IC50 ([4]; with TGFβ1, 24 hr): 116 nM

From patent publication US11613531B2, “Inhibitors of RHO associated coiled-coil containing protein kinase” (Kadmon Corporation, LLC, priority 2017, dated 2023)
